We go through three molecules from patent US20120064219A1, “EXTRUDED PARTICLES” (Firmenich SA, priority 2009, published 2012).

Peptide text beside a SMILES is read from it.

A short description of this series: LC-MS analysis of saliva samples of panelists chewing the gums. It is filed as in vivo. How it is done: 3 panelists were given various samples of chewing gum prepared above and instructed to chew the gums for 60 minutes. At various intervals, a saliva sample was taken from each panelist, diluted 50 times in water and then analysed by standard LC-MS to confirm the amount of sweetening component remaining in the mouth.

The mark [1] stands for this setting: encapsulated form in chewing gum.

Take `CC1=CC(=O)[N-]S(=O)(=O)O1.[K+]` [Acesulfame K]: the “effect of encapsulation on the release profile compared to the unencapsulated form” value (chewing gum, saliva) was “little effect”.

For the molecule `COC(=O)[C@H](Cc1ccccc1)NC(=O)[C@@H](N)CC(=O)O` [aspartame] (H-Asp-Phe-OMe), under setting [1], the “release profile in saliva (in words)” value is “releasing at a surprisingly stable rate for up to 40 minutes”.

Regarding `OC[C@H]1O[C@H](O[C@]2(CCl)O[C@H](CCl)[C@@H](O)[C@@H]2O)[C@H](O)[C@@H](O)[C@H]1Cl` [sucralose], the “release profile in saliva (in words)” value is reported as “remains remarkably stable for at least until 20 minutes” under setting [1] and “diminishes rapidly almost immediately” (unencapsulated form in chewing gum).
